Measurements: patent publication US10882871B2, “18/19F-labelled compounds which target the prostate specific membrane antigen” (BRITISH COLUMBIA CANCER AGENCY BRANCH, priority 2016, dated 2021)

Key:
[1] = test system: PSMA-expressing prostate cancer; conditions: clinical trials, PSMA-expressing prostate cancer patients; cited from earlier work
[2] = test system: PSMA-expressing LNCAP cancer xenografts; assay: Biodistribution and tumor-to-background contrast ratios of 18F-labeled tracers; type: in vivo, mouse (NODSCID 1L2RγKO male mice)
Procedure: LNCap cell line was obtained from ATCC (LNCaP clone FGC, CRL-1740). It was established from a metastatic site of left supraclavicular lymph node of human prostatic adenocarcinoma. Cells were cultured in PRMI 1640 medium supplemented with 10% FBS, penicillin (100 U/mL) and streptomycin (100 μg/mL) at 37° C. in a humidified incubator containing 5% CO2. Cells grown to 80-90% confluence were then washed with sterile phosphate-buffered saline (1×PBS pH 7.4) and trypsinization. The collected cells number was counted with a Hausser Scientific (Horsham, Pa.) Hemacytometer.
Imaging and biodistribution experiments were performed using NODSCID 1L2RγKO male mice. Mice were anesthetized by inhalation with 2% isoflurane in oxygen, and implanted subcutaneously with 1×10^7 LNCaP cells behind left shoulder. Mice were imaged or used in biodistribution studies when the tumor grew up to reach 5-8 mm in diameter during 5-6 weeks.
PET imaging experiments were conducted using Siemens Inveon micro PET/CT scanner. Each tumor bearing mouse was injected 6-8 MBq of F-18 labeled tracer through the tail vein under anesthesia (2% isoflurane in oxygen). The mice were allowed to recover and roam freely in their cage. After 50 min, the mice were sedated again with 2% isoflurane in oxygen inhalation and positioned in the scanner. A 10-min CT scan was conducted first for localization and attenuation correction after segmentation for reconstructing the PET images. Then, a 10-min static PET imaging was performed to determined uptake in tumor and other organs. The mice were kept warm by a heating pad during acquisition. For imaging studies acquired at 2 h post-injection (p.i.), the mice were placed in the micro PET/CT scanner at 110 min p.i. Then, the CT and PET acquisitions were conducted as described above.
For biodistribution studies, the mice were injected with the radiotracer as described above. At predetermined time points (1 or 2 h), the mice was anesthetized with 2% isoflurane inhalation, and euthanized by CO2 inhalation. Blood was withdrawn immediately from the heart, and the organs/tissues of interest were collected. The collected organs/tissues were weighed and counted using an automatic gamma counter. The uptake in each organ/tissue was normalized to the injected dose using a standard curve, and expressed as the percentage of the injected dose per gram of tissue (% ID/g).

Structure (SMILES): O=C([O-])CN1CCN(CC(=O)[O-])CCN(CC(=O)NCC2CCC(C(=O)N[C@@H](Cc3ccc4ccccc4c3)C(=O)NCCCC[C@H](NC(=O)N[C@@H](CCC(=O)O)C(=O)O)C(=O)O)CC2)CCN(CC(=O)[O-])CC1.[177Lu+3] (stereo partly shown) [PSMA-617 radiolabeled with Lu-177]
- positive response [1]: > 50%

Structure (SMILES): C[N+](C)(Cc1cn(Cc2ccc(C(=O)NCCCC[C@H](NC(=O)N[C@@H](CCC(=O)O)C(=O)O)C(=O)O)cn2)nn1)C[B-](F)(F)[18F] [^18F-HTK01130]
- Biodistribution Adrenal glands ([2]; 1 h): 1.46 ± 0.56 % ID/g
- Biodistribution Blood ([2]; 1 h): 0.58 ± 0.09 % ID/g
- Biodistribution Bone ([2]; 1 h): 0.22 ± 0.05 % ID/g
- Biodistribution Brain ([2]; 1 h): 0.04 ± 0.01 % ID/g
- Biodistribution Fat ([2]; 1 h): 0.39 ± 0.14 % ID/g
- Biodistribution Heart ([2]; 1 h): 0.21 ± 0.05 % ID/g
- Biodistribution Intestine ([2]; 1 h): 0.31 ± 0.01 % ID/g
- Biodistribution Kidneys ([2]; 1 h): 63.3 ± 13.5 % ID/g
- Biodistribution Liver ([2]; 1 h): 1.26 ± 0.27 % ID/g
- Biodistribution Lungs ([2]; 1 h): 0.75 ± 0.10 % ID/g
- Biodistribution Muscle ([2]; 1 h): 0.20 ± 0.07 % ID/g
- Biodistribution Pancreas ([2]; 1 h): 0.31 ± 0.11 % ID/g
- Biodistribution Spleen ([2]; 1 h): 0.95 ± 0.56 % ID/g
- Biodistribution Stomach ([2]; 1 h): 0.09 ± 0.03 % ID/g
- Biodistribution Testes ([2]; 1 h): 0.30 ± 0.05 % ID/g
- Biodistribution Tumor ([2]; 1 h): 4.44 ± 1.11 % ID/g
- Tumor:Blood contrast ratio ([2]; 1 h): 7.60 ± 1.33
- Tumor:Muscle contrast ratio ([2]; 1 h): 24.1 ± 8.79
- Tumor:kidney contrast ratio ([2]; 1 h): 0.07 ± 0.02
- Biodistribution Adrenal glands ([2]; 2 h): 1.08 ± 0.51 % ID/g
- Biodistribution Blood ([2]; 2 h): 0.21 ± 0.10 % ID/g
- Biodistribution Bone ([2]; 2 h): 0.20 ± 0.09 % ID/g
- Biodistribution Brain ([2]; 2 h): 0.03 ± 0.01 % ID/g
- Biodistribution Fat ([2]; 2 h): 0.32 ± 0.30 % ID/g
- Biodistribution Heart ([2]; 2 h): 0.10 ± 0.04 % ID/g
- Biodistribution Intestine ([2]; 2 h): 0.24 ± 0.11 % ID/g
- Biodistribution Kidneys ([2]; 2 h): 48.2 ± 24.6 % ID/g
- Biodistribution Liver ([2]; 2 h): 1.20 ± 0.30 % ID/g
- Biodistribution Lungs ([2]; 2 h): 0.30 ± 0.10 % ID/g
- Biodistribution Muscle ([2]; 2 h): 0.08 ± 0.03 % ID/g
- Biodistribution Pancreas ([2]; 2 h): 0.20 ± 0.18 % ID/g
- Biodistribution Spleen ([2]; 2 h): 0.39 ± 0.35 % ID/g
- Biodistribution Stomach ([2]; 2 h): 0.05 ± 0.03 % ID/g
- Biodistribution Testes ([2]; 2 h): 0.16 ± 0.10 % ID/g
- Biodistribution Tumor ([2]; 2 h): 4.27 ± 0.65 % ID/g
- Tumor:Blood contrast ratio ([2]; 2 h): 7.60 ± 1.33
- Tumor:Muscle contrast ratio ([2]; 2 h): 24.1 ± 8.79
- Tumor:kidney contrast ratio ([2]; 2 h): 0.07 ± 0.02

Structure (SMILES): C[N+](C)(Cc1cn(CC(=O)NCCOCCOCCC(=O)N[C@@H](Cc2ccc3ccccc3c2)C(=O)NCCCC[C@H](NC(=O)N[C@@H](CCC(=O)O)C(=O)O)C(=O)O)nn1)C[B-](F)(F)[18F] [^18F-HTK01146]
- Biodistribution Adrenal glands ([2]; 1 h): 0.81 ± 0.25 % ID/g
- Biodistribution Blood ([2]; 1 h): 0.13 ± 0.08 % ID/g
- Biodistribution Bone ([2]; 1 h): 0.10 ± 0.07 % ID/g
- Biodistribution Brain ([2]; 1 h): 0.01 ± 0.01 % ID/g
- Biodistribution Fat ([2]; 1 h): 0.27 ± 0.14 % ID/g
- Biodistribution Heart ([2]; 1 h): 0.07 ± 0.02 % ID/g
- Biodistribution Intestine ([2]; 1 h): 22.2 ± 2.79 % ID/g
- Biodistribution Kidneys ([2]; 1 h): 29.9 ± 25.0 % ID/g
- Biodistribution Liver ([2]; 1 h): 0.83 ± 0.34 % ID/g
- Biodistribution Lungs ([2]; 1 h): 0.40 ± 0.13 % ID/g
- Biodistribution Muscle ([2]; 1 h): 0.05 ± 0.01 % ID/g
- Biodistribution Pancreas ([2]; 1 h): 0.13 ± 0.11 % ID/g
- Biodistribution Spleen ([2]; 1 h): 0.75 ± 0.36 % ID/g
- Biodistribution Stomach ([2]; 1 h): 0.21 ± 0.12 % ID/g
- Biodistribution Testes ([2]; 1 h): 0.18 ± 0.05 % ID/g
- Biodistribution Tumor ([2]; 1 h): 5.09 ± 1.10 % ID/g
- Tumor:Blood contrast ratio ([2]; 1 h): 54.6 ± 38.5
- Tumor:Muscle contrast ratio ([2]; 1 h): 117 ± 52.1
- Tumor:kidney contrast ratio ([2]; 1 h): 0.28 ± 0.22

Structure (SMILES): C[N+](C)(Cc1cn(CC(=O)NC[C@H]2CC[C@H](C(=O)N[C@@H](Cc3ccc4ccccc4c3)C(=O)NCCCC[C@H](NC(=O)N[C@@H](CCC(=O)O)C(=O)O)C(=O)O)CC2)nn1)C[B-](F)(F)[18F] [^18F-HTK01157]
- Biodistribution Adrenal glands ([2]; 1 h): 2.89 ± 1.94 % ID/g
- Biodistribution Blood ([2]; 1 h): 0.89 ± 0.42 % ID/g
- Biodistribution Bone ([2]; 1 h): 0.34 ± 0.14 % ID/g
- Biodistribution Brain ([2]; 1 h): 0.04 ± 0.01 % ID/g
- Biodistribution Fat ([2]; 1 h): 0.83 ± 0.33 % ID/g
- Biodistribution Heart ([2]; 1 h): 0.31 ± 0.11 % ID/g
- Biodistribution Intestine ([2]; 1 h): 13.0 ± 4.61 % ID/g
- Biodistribution Kidneys ([2]; 1 h): 73.9 ± 35.2 % ID/g
- Biodistribution Liver ([2]; 1 h): 1.14 ± 0.48 % ID/g
- Biodistribution Lungs ([2]; 1 h): 1.21 ± 0.48 % ID/g
- Biodistribution Muscle ([2]; 1 h): 0.36 ± 0.18 % ID/g
- Biodistribution Pancreas ([2]; 1 h): 0.30 ± 0.17 % ID/g
- Biodistribution Spleen ([2]; 1 h): 2.67 ± 0.98 % ID/g
- Biodistribution Stomach ([2]; 1 h): 0.37 ± 0.45 % ID/g
- Biodistribution Testes ([2]; 1 h): 0.74 ± 0.55 % ID/g
- Biodistribution Tumor ([2]; 1 h): 14.0 ± 5.20 % ID/g
- Tumor:Blood contrast ratio ([2]; 1 h): 17.1 ± 5.40
- Tumor:Muscle contrast ratio ([2]; 1 h): 49.7 ± 28.5
- Tumor:kidney contrast ratio ([2]; 1 h): 0.21 ± 0.08

Structure (SMILES): O=C(O)CC[C@H](NC(=O)N[C@@H](CCCCNC(=O)c1ccc(Cn2cc(C[n+]3ccc([B-](F)(F)[18F])cc3)nn2)nc1)C(=O)O)C(=O)O [^18F-PSMA PyrBF3]
- Biodistribution Adrenal glands ([2]; 1 h): 6.66 ± 2.33 % ID/g
- Biodistribution Blood ([2]; 1 h): 0.74 ± 0.15 % ID/g
- Biodistribution Bone ([2]; 1 h): 0.76 ± 0.57 % ID/g
- Biodistribution Brain ([2]; 1 h): 0.05 ± 0.01 % ID/g
- Biodistribution Fat ([2]; 1 h): 1.05 ± 0.49 % ID/g
- Biodistribution Heart ([2]; 1 h): 0.34 ± 0.08 % ID/g
- Biodistribution Intestine ([2]; 1 h): 0.48 ± 0.22 % ID/g
- Biodistribution Kidneys ([2]; 1 h): 164 ± 50.2 % ID/g
- Biodistribution Liver ([2]; 1 h): 1.28 ± 0.18 % ID/g
- Biodistribution Lungs ([2]; 1 h): 1.67 ± 0.47 % ID/g
- Biodistribution Muscle ([2]; 1 h): 0.28 ± 0.07 % ID/g
- Biodistribution Pancreas ([2]; 1 h): 0.68 ± 0.50 % ID/g
- Biodistribution Spleen ([2]; 1 h): 3.36 ± 1.08 % ID/g
- Biodistribution Stomach ([2]; 1 h): 0.15 ± 0.03 % ID/g
- Biodistribution Testes ([2]; 1 h): 0.67 ± 0.27 % ID/g
- Biodistribution Tumor ([2]; 1 h): 6.26 ± 0.82 % ID/g
- Tumor:Blood contrast ratio ([2]; 1 h): 8.67 ± 1.74
- Tumor:Muscle contrast ratio ([2]; 1 h): 23.5 ± 5.00
- Tumor:kidney contrast ratio ([2]; 1 h): 0.04 ± 0.02

Structure (SMILES): O=C(O)CC[C@H](NC(=O)N[C@@H](CCCCNC(=O)[C@H](Cc1ccc2ccccc2c1)NC(=O)[C@H]1CC[C@H](CNC(=O)Cn2cc(C[n+]3ccc([B-](F)(F)[18F])cc3)nn2)CC1)C(=O)O)C(=O)O [^18F-PSMA-617-PyrBF3]
- Biodistribution Adrenal glands ([2]; 1 h): 2.02 ± 0.56 % ID/g
- Biodistribution Blood ([2]; 1 h): 1.45 ± 1.15 % ID/g
- Biodistribution Bone ([2]; 1 h): 0.54 ± 0.14 % ID/g
- Biodistribution Brain ([2]; 1 h): 0.03 ± 0.00 % ID/g
- Biodistribution Fat ([2]; 1 h): 0.42 ± 0.30 % ID/g
- Biodistribution Heart ([2]; 1 h): 0.25 ± 0.06 % ID/g
- Biodistribution Intestine ([2]; 1 h): 20.8 ± 4.79 % ID/g
- Biodistribution Kidneys ([2]; 1 h): 83.5 ± 35.7 % ID/g
- Biodistribution Liver ([2]; 1 h): 1.10 ± 0.28 % ID/g
- Biodistribution Lungs ([2]; 1 h): 1.06 ± 0.23 % ID/g
- Biodistribution Muscle ([2]; 1 h): 0.18 ± 0.03 % ID/g
- Biodistribution Pancreas ([2]; 1 h): 0.26 ± 0.08 % ID/g
- Biodistribution Spleen ([2]; 1 h): 2.84 ± 1.51 % ID/g
- Biodistribution Stomach ([2]; 1 h): 0.98 ± 0.12 % ID/g
- Biodistribution Testes ([2]; 1 h): 0.39 ± 0.13 % ID/g
- Biodistribution Tumor ([2]; 1 h): 23.1 ± 8.26 % ID/g
- Tumor:Blood contrast ratio ([2]; 1 h): 35.4 ± 27.6
- Tumor:Muscle contrast ratio ([2]; 1 h): 145 ± 57.0
- Tumor:kidney contrast ratio ([2]; 1 h): 0.32 ± 0.11
